Laboratory results as given in patent publication US11872220B2, “Methods and compositions for treating B-cell malignancies” (Janssen Pharmaceutica NV, priority 2021, dated 2024).
Entries after “also recorded” stand apart in the source; their conditions may differ.

Tests used:
[1] = test system: IL-10, TNF-α, IL12p70, IL-6 in serum; test: Serum cytokine secretion in OCI-LY3 tumor bearing mice, Mesoscale assay; type: in vivo, NOD/SCID mice
Description: Tumor and Serum Samples Collection on Study Termination. Whole blood samples were collected from all groups at 6 hours post the final dose. Serum samples were isolated from all groups were collected and stored at −80° C. Tumor tissues were collected from all of groups when study was terminated, and split into 2 pieces, take weights, processed to snap frozen and stored in 2 separated tubes.
Tumor and Serum Samples Collection on Study Termination. NF-κB signaling regulates the secretion of multiple cytokines, including interleukin (IL)-6 and IL-10. Secretion of the cytokines (IL-10, TNF-α, IL12p70, and IL-6) in serum samples of OCI-LY3 animals was measured by using a Mesoscale assay (MSD). For in vivo efficacy study, serum samples were isolated from all tumor bearing mice at 6 hours post the final dose of the MALT1 inhibitor of Formula I. For in vivo Pharmacodynamic (PD) experiment, serum samples were isolated from all tumor bearing mice (tumor volume around 700 mm3) at 8 hours post treatment with the MALT1 inhibitor of Formula I (BID dosing). Serum samples were transferred to an MSD plate (V-Plex Proinflammation Panel 1 [human] kit) and incubated for 2 hours at RT followed by a 2-hour incubation with cytokine antibody solution. Plates were read on a SECTOR imager.

[2] = test system: OCI-LY3 DLBCL CDX model; test: In vivo efficacy in OCI-LY3 model, tumor growth inhibition; design: species or system NOD/SCID mice; details: for tumor growth inhibition (TGI): oral, 12 days post treatment; for in vivo growth of OCI-LY3 DLBCL CDX model (efficacy in words): OCI-LY3 model (CARD11 mut)
[3] = test system: CLL cells; test: CLL cell viability, flow cytometry with DiOC6 and TO-PRO3; type: cell-based, human; details: 24 hours, DiOC6 and TO-PRO3 staining
Description: (§1) FIG. 1A is a bar graph showing the results of an experiment in which CLL cells were treated with the indicated drugs and concentrations and incubated for 24 hours. For the BCR stimulation, cells were supplemented with IL-4 and αIgM. […] Bars represent the mean±SEM. FIG. 1B is a bar graph showing the results of an experiment in which CLL cells were labeled with CellTrace Violet and cultured for 5 days on 3T40 supplemented with IL-21 or on 3T3 in combination with CpG, IL-2, IL-15, and IL-21 in combination with 10 μM MALTi. Proliferation was measured using flow cytometry based on CellTrace Violet signal (n=8). […] Afterwards, culture supernatant was collected and IL-6 (n=14) (FIG. 1C), IL-10 (n=13) (FIG. 1D), and TNFα (n=14) (FIG. 1E) levels were measured using commercial ELISA kits. […] Protein lysates were probed for p-IκBα, Bcl-XL, and actin as loading control.

[4] = test system: NF-κB-mediated cytokine secretion in CLL cells; test: Cytokine secretion (IL-6, IL-10, TNFα) of stimulated CLL cells, ELISA; type: cell-based, human; details: CD40, BCR and TLR9 stimulation, 24 hours
Description: as §1
(§2) CLL PBMCs were either co-cultured with 3T40 fibroblasts, stimulated with soluble or immobilized anti-IgM (SouthernBiotech, Birmingham, AL, USA) or stimulated with CpG ODN2006 (1 μg/mL) and incubated for 24 hours. Culture supernatant was collected and IL-6, IL-10, and TNFα levels were measured by commercial ELISA kits (Diaclone, Besancon, France). […] Samples were measured on a FACS Canto II cytometer (BD Biosciences, San Jose, CA, USA) and analyzed using FlowJo software.

[5] = test system: RelB and Bcl10 cleavage in OCI-Ly3 cell line; test: Activity of MALT1 inhibitor in OCI-Ly3 cell line, inhibition of RelB and Bcl10 cleavage by Western blotting; type: cell-based; details: 24 hours, with proteasome inhibitor MG132, Western blot
Description: OCI-Ly3 cell lines were cultured for 24 hours in combination with proteasome inhibitor MG132 and indicated concentrations of MALTi. Protein lysates were probed for RelB, Bcl10 and actin or vinculin as loading controls.
Western blot analysis was performed using standard techniques. Membranes were probed with the following antibodies: anti-RelB, p-IκBα, Bcl-XL (Cell Signaling), Bcl10 (Abcam), and actin (Santa Cruz Biotechnology). Odyssey Imager (Li-Cor Biosciences) was used as a detection method according to the manufacturer's protocol.
To test MALT1 inhibition in the context of CLL, we investigated CLL functionality under divergent microenvironmental stimulations. […] Proliferation of CLL cells was induced either via CD40 stimulation in combination with IL-21, or by stimulation with CpG in combination with IL-2, IL-15 and IL-21 ([…]). […] Because of the central role of MALT1 in NF-κB signaling, we investigated known targets of NF-κB such as IL-6, IL-10 and TNFα. Both CD40, BCR and TLR9 stimulation induced cytokine secretion of IL-6, IL-10 and TNFα (FIG. 1C-E). […] The role of MALT1 in the BCR and TLR9 pathway has previously been described, but its role in the CD40 pathway is a new observation.

[6] = test system: CLL cells; test: Proliferation of CLL cells, CellTrace Violet; type: cell-based, human; details: 10 μM MALTi, 5 days; CD40 stimulation + IL-21 or CpG + IL-2, IL-15, IL-21
Description: as §1
CLL PBMCs were labeled with CellTrace Violet and either co-cultured with 3T40 fibroblasts and supplemented with IL-21 (25 ng/mL) or stimulated with CpG ODN2006 (1 μg/mL) and supplemented with IL-2, IL-15, and IL-21 (25 ng/mL). CLL cells were cultured for 5 days. […] Samples were measured on a FACS Canto II cytometer (BD Biosciences, San Jose, CA, USA) and proliferation was analyzed using FlowJo software.

[7] = test system: Bcl-2 family members Bcl-XL, Mcl-1 and Bcl-2 in CLL cells; test: Expression of Bcl-XL, Mcl-1 and Bcl-2 in stimulated CLL cells, intracellular flow cytometry; type: cell-based, human; details: CD40, BCR or TLR9 stimulation, 10 μM MALTi, 24 hours
Description: Afterwards, expression of Bcl-XL (n=13) (FIG. 2A).
CLL PBMCs were either co-cultured with 3T40 fibroblasts, stimulated with soluble or immobilized anti-IgM (SouthernBiotech, Birmingham, AL, USA) or stimulated with CpG ODN2006 (1 μg/mL) and incubated for 24 hours. Culture supernatant was collected and IL-6, IL-10, and TNFα levels were measured by commercial ELISA kits (Diaclone, Besancon, France). Intracellular flow cytometry staining was performed using Cytofix/Cytoperm according to manufacturer's protocol (BD Biosciences). Cells were stained with the following antibodies: anti-Bcl-XL-FITC, Mcl-1-PE, and Bcl-2-BV421 (BD Biosciences). Samples were measured on a FACS Canto II cytometer (BD Biosciences, San Jose, CA, USA) and analyzed using FlowJo software.

[8] = test system: CLL-derived and healthy T cells; test: T cell stimulation with anti-CD3/CD28: activation, proliferation, degranulation, cytokine secretion; type: cell-based, human
Description: Afterwards, cells were measured using flow cytometry. FIG. 3A are bar graphs showing T cell activation measured based on CD25. […] FIG. 3C are bar graphs showing T cell proliferation measured based on CellTrace Violet signal. FIG. 3D are bar graphs showing T cell degranulation measured in CLL (n=13) and healthy (n=3) T cells based on CD107a. After incubation, culture supernatant was collected and IFNγ (n=12) and TNFα (n=9) levels were measured using commercial ELISA kits (FIG. 3E).
(§3) CLL or healthy donor PBMCs were labeled with CFSE or CTV and stimulated with anti-CD3 (clone 1XE) and anti-CD28 (clone 15E8) antibodies for 4 days. Culture supernatant was collected and IFNγ (ThermoFisher) and TNFα (Diaclone) levels were measured by commercial ELISA kits. The activation/proliferation panel consisted of the following antibodies: CD3-μF700 (eBioscience), CD4-PE-Cy7, CD8-PerCpCy5.5, CD25-APC (BD Bioscience). The differentiation panel consisted of the following antibodies: CD27/CCR7-PerCP-eFluor710 or (eBioscience), CD4-PE-Cy7, CD8-BV786, CD25-PE, CD45RA-BV650, and FoxP3-APC (BD Biosciences). The cytotoxicity panel consisted of the following antibodies: CD107a-FITC (eBioscience), CD4-PerCPeF710, CD8-BV786, CD25-PE, and PD1-PE-Cy7 (BD Biosciences). Samples were measured on a FACS Canto II cytometer (BD Biosciences, San Jose, CA, USA) and analyzed using FlowJo software.

[9] = test system: NF-κB signaling (p-IκBα, Bcl-XL) in CLL cells; test: Western blot of p-IκBα and Bcl-XL in stimulated CLL cells; type: cell-based, human; details: 10 μM MALTi, 24 hours
Description: as §1
Western blot analysis was performed using standard techniques. […]
as §2

[10] = test system: T cell subsets in CLL and healthy donor PBMCs; test: T cell differentiation and subset distribution, flow cytometry; type: cell-based, human
Description: (§4) Afterwards, T cell subsets were measured using flow cytometry as described. […] Afterwards, T cell subsets were measured using flow cytometry based on CD27 and CD45RA. Naïve T cells were gated as CD27^+/CD45RA^+, central memory T cells were gated as CD27^+/CD45RA^−, memory T cells were gated as CD27^−/CD45RA^−, and terminally differentiated effector memory cells re-expressing CD45RA T cells were gated as CD27^−/CD45RA^+. […] Afterwards, regulatory T cells were measured using flow cytometry and gated as CD4^+/CD25^+/FoxP3^+. Bars represent the mean±SEM, *p<0.05, ***p<0.001 (paired sample t-test).
as §3, with “The cytotoxicity panel consisted of the following antibodies: CD107a-FITC (eBioscience), CD4-PerCPeF710, CD8-BV786, CD25-PE, and PD1-PE-Cy7 (BD Biosciences).” left out

[11] = test system: CLL cells; details: CD40-, BCR- or TLR9-stimulated, 10 μM MALTi, BH3 mimetic for additional 24 hours
Description: FIGS. 2A-2C are bar graphs showing the results of experiments in which CLL cells were cultured for 24 hours on 3T40, stimulated with IL-4 and αIgM (soluble or immobilized to beads) or stimulated with CpG, and incubated for 24 hours in combination with 10 μM MALTi. […] FIGS. 2D-2I) are graphs showing the results of experiments in which, in parallel, CD40-stimulated (n=9) (FIGS. 2D-2E), BCR-stimulated (n=8) (FIGS. 2F-2G), and TLR9-stimulated (n=6) (FIGS. 2H-2I) cells were with venetoclax or S63 for an additional 24 hours. Viability was measured using flow cytometry using DiOC6 and TO-PRO3 viability staining. […]
Lymphocytes of CLL patients were co-cultured with NIH3T3 fibroblasts stably transfected with human CD40L (3T40) or negative control (3T3) as described before (Urashima et al., “CD40 Ligand Triggered Interleukin-6 Secretion in Multiple Myeloma,” Blood 85(7):1903-1912 (1995) and Schultze et al., “CD40-Activated Human B Cells: An Alternative Source of Highly Efficient Antigen Presenting Cells to Generate Autologous Antigen-Specific T Cells for Adoptive Immunotherapy,” J. Clin. Invest. 100(11):2757-2765 (1997). After 24 hours, cells were detached and incubated with or without drugs for an additional 24 hours. CLL cell viability was measured by flow cytometry using DioC6 and TO-PRO-3 viability dyes. […]

[12] = test system: CD4+/CD25+/FoxP3+ regulatory T cells; test: Regulatory T cell population in unstimulated PBMCs, flow cytometry; type: cell-based, human; details: unstimulated CLL and healthy donor PBMCs, 4 days
Description: as §4
as §3, with “The cytotoxicity panel consisted of the following antibodies: CD107a-FITC (eBioscience), CD4-PerCPeF710, CD8-BV786, CD25-PE, and PD1-PE-Cy7 (BD Biosciences).” left out

CC1(C)CCC(CN2CCN(c3ccc(C(=O)NS(=O)(=O)c4ccc(NCC5CCOCC5)c([N+](=O)[O-])c4)c(Oc4cnc5[nH]ccc5c4)c3)CC2)=C(c2ccc(Cl)cc2)C1 [Venetoclax, 4-[4-[[2-(4-chlorophenyl)-4,4-dimethylcyclohexen-1-yl]methyl]piperazin-1-yl]-N-[3-nitro-4-(oxan-4-ylmethylamino)phenyl]sulfonyl-2-(1H-pyrrolo[2,3-b]pyridin-5-yloxy)benzamide, reference compound]
cytokine secretion levels in serum (IL-10, TNFα, IL12p70, IL6) ([1]; monotherapy): didn't show effect
tumor growth inhibition (TGI) ([2]; 40 mg/kg QD): 0.98%
TGI ([2]; 40 mg/kg, QD): 0.98%
in vivo growth of OCI-LY3 DLBCL CDX model (efficacy in words) [2]: did not show any efficacy

O=C(Nc1ccnc(C(F)(F)F)c1)c1cnn(-c2cccc3c(=O)[nH]ccc23)c1C(F)(F)F [MALT1 inhibitor of Formula I, 1-(1-oxo-1,2-dihydroisoquinolin-5-yl)-5-(trifluoromethyl)-N-[2-(trifluoromethyl)pyridin-4-yl]-1H-pyrazole-4-carboxamide]
direct cell death in CLL cells (viability) [3]: did not induce direct cell death
NF-κB-mediated cytokine secretion (IL-6, IL-10, TNFα) [4]: decreased NF-κB-mediated cytokine secretion in all conditions and was most effective in CD40-stimulated cells
inhibition of RelB and Bcl10 cleavage [5]: confirmed activity
proliferation of CLL cells [6]: reduced both types of proliferation but did not fully block the proliferation
expression of Bcl-XL, flow cytometry [7]: inhibited
expression of Mcl-1 and Bcl-2, flow cytometry [7]: not significantly affected
CD107a (LAMP-1) expression, T cell degranulation ([8]; anti-CD3/CD28, 4 days): reduced
IFNγ and TNFα cytokine secretion ([8]; anti-CD3/CD28, 4 days, ELISA): significantly inhibited
concentrations at which in vitro T cell activation is impaired ([8]; anti-CD3/CD28 stimulated T cells): > 1 µM
T cell activation and proliferation (CD25, PD-1, CellTrace Violet) ([8]; soluble anti-CD3/CD28, 4 days, CD4 and CD8 T cells, CLL and healthy donors): significantly reduced
Bcl-XL expression, Western blot ([9]; BCR stimulation with soluble or immobilized anti-IgM or TLR9 stimulation via CpG): inhibition of Bcl-XL expression was also observed
p-IκBα and Bcl-XL, Western blot ([9]; CD40-stimulated (3T40) CLL cells): a decrease in p-IκBα and the NF-κB target Bcl-XL
T cell subset distribution (differentiation) ([10]; stimulated with anti-CD3/CD28, 4 days, increasing concentrations): reverted the T cell subset distribution back to the phenotype seen in unstimulated cells
T cell subset distribution ([10]; unstimulated cells, 4 days): did not affect T cell subset distribution
sensitivity of stimulated CLL cells to venetoclax and S63 with concurrent MALT1 inhibition [11]: a shift towards venetoclax and S63 sensitivity in all these conditions
CD4+/CD25+/FoxP3+ T cells [12]: specific significant decrease
IL-10, TNF-α, and IL12p70 secretion levels in serum ([1]; 6 hours post final dose): decrease IL-10, TNF-α, and IL12p70 secretion levels; also recorded: downregulate IL-10, TNF-α and IL12p70 secretion
tumor growth inhibition (TGI) ([2]; 30 mg/kg BID): 41.31%
TGI ([2]; 30 mg/kg, BID as printed, (second line of Table 4)): 69.92%
TGI ([2]; 30 mg/kg, BID, (first line of Table 4)): 41.31%
tumor growth inhibition (TGI) ([2]; 100 mg/kg BID): 69.92%
in vivo growth of OCI-LY3 DLBCL CDX model (efficacy in words) [2]: moderately inhibits in vivo growth
